# Experimental data: patent US6780871B2, “Methods and compositions for treating addiction disorders” (Albany Medical College, priority 2001, dated 2004)
# What was measured:
# nACh receptors = molecular target: T1, nACh receptors (Rattus norvegicus, UniProt P09483+P12390); assay: whole-cell patch-clamp of transfected HEK293 cells, neuronal nACh receptors, 300 μM ACh; format: cell-based; conditions: 300 μM ACh, estimated from 5 and 20 μM data; read-out: IC50 suggested by the inhibition data
# T1 construct: expressed in transfected cells; host or cells: HEK293 (ATCC CRL1573), transient transfection
# Description: (§1) Human embryonic kidney 293 (HEK293) fibroblasts (ATCC CRL1573) were cultured in minimal essential medium supplemented with 10% fetal bovine serum and 2 mM glutamine (Life Technologies, Rockville, Md.). Cells were plated on poly-D-lysine-coated 35 mm nunc dishes, transfected by the LipofectaminePLUS method (Life Technologies), and examined functionally between 18-48 h post transfection. The following receptor subunit cDNAs were used: nAChR-α3 (nicotinic acetylcholine receptor-α3; accession no. L31621), nAChR-α4 (accession no. L31620), nAChR-β2 (accession no. L31622), nAChR-β4 (accession no. U42976), 5-HT3R-A (5-HT3A receptor; accession no. M74425), NR1 (N-methyl-D-aspartate receptor 1; accession no. X63255), NR2A (accession no. X91561), and NR2B (accession no. M91562). The nAchR and NR clones were rat; the 5-HT3R-A clone was mouse. Co-transfection of enhanced green fluorescent protein (“EGFP”) (10% of total cDNA) provided a marker to identify transfected cells. Transfected cells were selected for EGFP expression and examined by voltage-clamp recording in the whole-cell configuration using an Axopatch 200B patch-clamp amplifier (Axon Instruments, Foster City, Calif.). Thin-walled borosilicate glass microelectrodes (TW150F, World Precision Instruments, Sarasota, Fla.) had resistances of 3-5 MΩ when filled with an internal solution containing (in mM): 135 CsCl, 10 CsF, 10 HEPES (N-[2-hydroxyethyl]piperazine-N′-[2-ethanesulfonic acid]), 5 EGTA (ethylene glycol-bis[β-aminoethyl ether]-N,N,N′,N′-tetraacetic acid), 1 MgCl2, 0.5 CaCl2, pH 7.2. Whole-cell capacitance and series resistance were recorded and adequately compensated using the available circuitry of the amplifier. Current responses were filtered at 1 kHz with an 8-pole Bessel filter (Cygnus Technologies, Delaware Water Gap, Pa.), digitized at 3 kHz, and stored on a Macintosh PowerPC-G3 computer using an ITC-16 interface (Instrutech, Great Neck, N.Y.) under control of the data acquisition and analysis program Synapse (Synergy Research, Gaithersburg, Md.). Cells were continuously superfused with extracellular solution containing (in mM): 150 NaCl, 3 KCl, 5 HEPES, 1 MgCl2, 1.8 CaCl2, 10 glucose, and 0.1 mg/ml phenol red, pH 7.3 (MgCl2 was omitted from all solutions used for the study of NMDA receptors). […] Control, agonist, and drug solutions were applied to individual cells by rapid perfusion. Solutions were driven by a syringe pump through a flowpipe having 4 inputs that converge at a single common output of approximately 100 μm diameter. Rapid switching between inputs was achieved using a set of upstream solenoid valves (Lee Co., Westbrook, Conn.) under computer control; the solution exchange rate was ˜5 ms as measured from liquid junction currents.
# (§2) Transfected HEK293 cells expressing various receptor subunit cDNAs were examined by whole-cell patch-clamp recording with fast perfusion of agonist and drug solutions. […] Transfected HEK293 cells expressing α3β4 nACh receptors were voltage-clamped to −70 mV and stimulated with 1 mM ACh at 30 s intervals. […] In FIG. 1A, open bars depict the timing of ACh application; filled bars depict the timing of co-application of 20 μM IBO or 20 μM 18MC; and inhibition was measured relative to control at the end of the drug application (indicated by arrows). […] The data presented in FIG. 1B are mean±SEM for 3-14 cells per point, and curve fits are given for the logistic equation: I=Imax/(1+([drug]/IC50)). […] In this case, transfected HEK293 cells expressing α3β4 nACh receptors were voltage-clamped to −70 mV and stimulated with 300 μM ACh at 30 s intervals.
# α3β4 nACh receptors = molecular target: T2, α3β4 nACh receptors (Rattus norvegicus, UniProt P09483+P12390); assay: as above; format: cell-based
# T2 construct: expressed in transfected cells; host or cells: HEK293 (ATCC CRL1573), transient transfection
# Description: as §1, §2
# [1] = system: methamphetamine self-administration; assay: intravenous methamphetamine self-administration; format: in vivo, rat
# T2 sequence (P09483 31-630): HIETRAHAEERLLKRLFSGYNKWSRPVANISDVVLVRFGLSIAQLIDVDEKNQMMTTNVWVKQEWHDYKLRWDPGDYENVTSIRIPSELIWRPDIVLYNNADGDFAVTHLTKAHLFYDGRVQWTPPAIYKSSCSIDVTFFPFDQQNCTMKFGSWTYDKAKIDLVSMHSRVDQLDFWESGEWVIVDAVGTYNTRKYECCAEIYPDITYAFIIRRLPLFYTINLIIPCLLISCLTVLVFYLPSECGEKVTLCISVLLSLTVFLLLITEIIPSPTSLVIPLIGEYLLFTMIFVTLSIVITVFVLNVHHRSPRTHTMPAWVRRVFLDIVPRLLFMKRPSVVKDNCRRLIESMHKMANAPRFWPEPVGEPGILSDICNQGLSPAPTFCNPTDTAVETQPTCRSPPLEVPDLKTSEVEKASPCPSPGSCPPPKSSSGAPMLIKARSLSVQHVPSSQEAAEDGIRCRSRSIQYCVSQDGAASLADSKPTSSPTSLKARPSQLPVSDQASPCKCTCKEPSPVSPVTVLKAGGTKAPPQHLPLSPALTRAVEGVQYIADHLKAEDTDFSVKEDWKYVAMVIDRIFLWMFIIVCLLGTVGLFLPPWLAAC
# T2 sequence (P12390 25-500): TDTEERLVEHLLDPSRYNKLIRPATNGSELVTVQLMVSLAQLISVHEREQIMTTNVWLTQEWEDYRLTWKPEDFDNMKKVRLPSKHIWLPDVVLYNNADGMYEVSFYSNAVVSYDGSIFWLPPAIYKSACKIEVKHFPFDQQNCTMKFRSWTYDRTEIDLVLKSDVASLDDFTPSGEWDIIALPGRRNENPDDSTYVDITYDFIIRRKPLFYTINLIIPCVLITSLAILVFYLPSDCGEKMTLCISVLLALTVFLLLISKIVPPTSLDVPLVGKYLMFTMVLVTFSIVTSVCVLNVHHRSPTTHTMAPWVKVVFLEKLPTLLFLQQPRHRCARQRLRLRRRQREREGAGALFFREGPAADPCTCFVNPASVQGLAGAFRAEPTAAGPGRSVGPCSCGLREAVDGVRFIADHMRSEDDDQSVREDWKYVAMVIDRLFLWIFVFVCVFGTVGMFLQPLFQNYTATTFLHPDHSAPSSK
# T1 sequence (P09483 31-630): as the sequence (P09483 31-630) above
# T1 sequence (P12390 25-500): as the sequence (P12390 25-500) above
structure (smiles),measurement,setting,value
COCC[C@H]1CC2CN3CCc4c([nH]c5ccccc45)[C@](C(=O)OC)(C2)[C@H]13 [18-methoxycoronaridine],IC50,nACh receptors,> 20 µM
same,inhibition of ACh-evoked response,α3β4 nACh receptors; 5 μM drug with 300 μM ACh,no apparent inhibition
same,response to drug applied alone (agonist activity),"α3β4 nACh receptors; 20 μM drug alone, -70 mV",did not produce any response
same,inhibition of ACh-evoked response,"α3β4 nACh receptors; 20 μM drug with 300 μM ACh, FIG. 2",8 ±4%
same,effect on methamphetamine self-administration (percent of baseline),"[1]; Example 5, FIG. 6: mecamylamine 1 mg/kg i.p., 18-methoxycoronaridine 2 mg/kg i.p., dextromethorphan 5 mg/kg s.c., 6-7 rats","none of the drugs administered alone, significantly decreased"
same,effect on methamphetamine self-administration (percent of baseline),"[1]; Example 6, FIG. 9: mecamylamine 1 mg/kg i.p., 18-methoxycoronaridine 5 mg/kg i.p., dextromethorphan 10 mg/kg s.c., bupropion 10 mg/kg i.p., 5-9 rats","none of the drugs administered alone, significantly decreased"
